Values joined by “and” are separate entries in the source; they are usually repeats but may differ in a detail not shown here. Equal entries are not always repeated. Where two headings read alike, the source gives them in different places.
Columns and labels:
[1] = ref [2],[4], cited from earlier work
[2] = vitreous humor, two-compartment model, n=4
in vivo = conditions: male, New Zealand white, rabbit
[3] = retina to scleral (R-S) direction, isolated rabbit RCS; ref [4]; cited from earlier work
[4] = ref Ameer et al., [10]; cited from earlier work

glucosyl hesperidin [hesperidin G]
log P [1]: −3.2
log P ([1]; listed as Hesperidin G): < −3.2
AUC ([2]; intravitreal dose 1.5 µg): 688 ± 47 µg·min/mL
Alpha ([2]; intravitreal dose 1.5 µg): 0.045 ± 0.019 min⁻¹
Alpha_HL ([2]; intravitreal dose 1.5 µg): 17 ± 6 min
Beta ([2]; intravitreal dose 1.5 µg): 0.0014 ± 0.0002 min⁻¹
Beta_HL ([2]; intravitreal dose 1.5 µg): 495 ± 66 min
CL ([2]; intravitreal dose 1.5 µg): 0.0022 ± 0.0002 mL/min
CLD2 ([2]; intravitreal dose 1.5 µg): 0.011 ± 0.002 mL/min
Cmax ([2]; intravitreal dose 1.5 µg): 3790 ± 1060 ng/mL
MRT ([2]; intravitreal dose 1.5 µg): 10.8 ± 1.5 h
Vss ([2]; intravitreal dose 1.5 µg): 1.41 ± 0.14 mL
AUC ([2]; intravitreal dose 4.5 µg): 1811 ± 269 µg·min/mL
Alpha ([2]; intravitreal dose 4.5 µg): 0.028 ± 0.011 min⁻¹
Alpha_HL ([2]; intravitreal dose 4.5 µg): 29 ± 16 min
Beta ([2]; intravitreal dose 4.5 µg): 0.0015 ± 0.0002 min⁻¹
Beta_HL ([2]; intravitreal dose 4.5 µg): 468 ± 82 min
CL ([2]; intravitreal dose 4.5 µg): 0.0025 ± 0.0004 mL/min
CLD2 ([2]; intravitreal dose 4.5 µg): 0.003 ± 0.001 mL/min
Cmax ([2]; intravitreal dose 4.5 µg): 20160 ± 6120 ng/mL
MRT ([2]; intravitreal dose 4.5 µg): 6.97 ± 0.35 h
Vss ([2]; intravitreal dose 4.5 µg): 1.05 ± 0.013 mL
AUC ([2]; intravitreal dose 15 µg): 6167 ± 168 µg·min/mL
Alpha ([2]; intravitreal dose 15 µg): 0.027 ± 0.007 min⁻¹
Alpha_HL ([2]; intravitreal dose 15 µg): 27 ± 8 min
Beta ([2]; intravitreal dose 15 µg): 0.0017 ± 0.0003 min⁻¹
Beta_HL ([2]; intravitreal dose 15 µg): 414 ± 70 min
CL ([2]; intravitreal dose 15 µg): 0.0024 ± 0.0002 mL/min
CLD2 ([2]; intravitreal dose 15 µg): 0.007 ± 0.001 mL/min
Cmax ([2]; intravitreal dose 15 µg): 32050 ± 4390 ng/mL
MRT ([2]; intravitreal dose 15 µg): 8.62 ± 1.33 h
Vss ([2]; intravitreal dose 15 µg): 1.25 ± 0.16 mL

COc1ccc([C@@H]2CC(=O)c3c(O)cc(O)cc3O2)cc1O [hesperetin, Hesperetin]
Vd (in vivo): 0.001 to 0.0015 L
AUC (in vivo; 1.5 ug): 2980 ng·h/mL
Cmax (in vivo; 1.5 ug): 1020 ± 200 ng/mL
clearance (in vivo; 1.5 ug, CL): 0.0093 ± 0.004 mL/min
half-life (in vivo; 1.5 ug, T1/2): 1.83 ± 0.467 h
AUC (in vivo; 4.5 ug): 7920 ng·h/mL
Cmax (in vivo; 4.5 ug): 4510 ± 570 ng/mL
clearance (in vivo; 4.5 ug, CL): 0.0096 ± 0.0015 mL/min
half-life (in vivo; 4.5 ug, T1/2): 1.48 ± 0.233 h
AUC (in vivo; 15 ug): 29100 ng·h/mL
Cmax (in vivo; 15 ug): 14700 ± 1990 ng/mL
clearance (in vivo; 15 ug, CL): 0.0086 ± 0.0007 mL/min
half-life (in vivo; 15 ug, T1/2): 1.38 ± 0.167 h
clearance (in vivo; 15 ug, clearance rate (CL)): 0.0086 to 0.0096 mL/min
half-life (in vivo; 15 ug, elimination half-life (T1/2)): 1.39 to 1.84 h
apparent permeability [3]: 2.52 ± 0.51 × 10^−6 cm/s

COc1ccc([C@@H]2CC(=O)c3c(O)cc(O[C@@H]4O[C@H](CO[C@@H]5O[C@@H](C)[C@H](O)[C@@H](O)[C@H]5O)[C@@H](O)[C@H](O)[C@H]4O)cc3O2)cc1O [hesperidin, Hesperidin]
log P [1]: 1.79 and 1.78
AUC ([2]; intravitreal dose 1.5 µg): 651 ± 88 µg·min/mL
Alpha ([2]; intravitreal dose 1.5 µg): 0.0267 ± 0.0077 min⁻¹
Alpha_HL ([2]; intravitreal dose 1.5 µg): 28 ± 7 min
Beta ([2]; intravitreal dose 1.5 µg): 0.0016 ± 0.0004 min⁻¹
Beta_HL ([2]; intravitreal dose 1.5 µg): 386 ± 116 min
CL ([2]; intravitreal dose 1.5 µg): 0.0027 ± 0.0003 mL/min
CLD2 ([2]; intravitreal dose 1.5 µg): 0.0058 ± 0.0010 mL/min
Cmax ([2]; intravitreal dose 1.5 µg): 3260 ± 1350 ng/mL
MRT ([2]; intravitreal dose 1.5 µg): 9.08 ± 1.77 h
V2 ([2]; intravitreal dose 1.5 µg): 0.75 ± 0.62 mL
Vss ([2]; intravitreal dose 1.5 µg): 1.48 ± 0.42 mL
AUC ([2]; intravitreal dose 4.5 µg): 1575 ± 164 µg·min/mL
Alpha ([2]; intravitreal dose 4.5 µg): 0.0249 ± 0.0109 min⁻¹
Alpha_HL ([2]; intravitreal dose 4.5 µg): 31 ± 11 min
Beta ([2]; intravitreal dose 4.5 µg): 0.0017 ± 0.0003 min⁻¹
Beta_HL ([2]; intravitreal dose 4.5 µg): 407 ± 58 min
CL ([2]; intravitreal dose 4.5 µg): 0.0029 ± 0.0003 mL/min
CLD2 ([2]; intravitreal dose 4.5 µg): 0.0054 ± 0.0026 mL/min
Cmax ([2]; intravitreal dose 4.5 µg): 10820 ± 1120 ng/mL
MRT ([2]; intravitreal dose 4.5 µg): 7.47 ± 0.917 h
V2 ([2]; intravitreal dose 4.5 µg): 0.87 ± 0.21 mL
Vss ([2]; intravitreal dose 4.5 µg): 1.29 ± 0.21 mL
AUC ([2]; intravitreal dose 15 µg): 4835 ± 861 µg·min/mL
Alpha ([2]; intravitreal dose 15 µg): 0.0358 ± 0.0084 min⁻¹
Alpha_HL ([2]; intravitreal dose 15 µg): 20 ± 5 min
Beta ([2]; intravitreal dose 15 µg): 0.0014 ± 0.0004 min⁻¹
Beta_HL ([2]; intravitreal dose 15 µg): 466 ± 98 min
CL ([2]; intravitreal dose 15 µg): 0.0032 ± 0.0005 mL/min
CLD2 ([2]; intravitreal dose 15 µg): 0.0130 ± 0.0026 mL/min
Cmax ([2]; intravitreal dose 15 µg): 25230 ± 3020 ng/mL
MRT ([2]; intravitreal dose 15 µg): 11.1 ± 3.07 h
V2 ([2]; intravitreal dose 15 µg): 1.46 ± 0.40 mL
Vss ([2]; intravitreal dose 15 µg): 2.07 ± 0.35 mL
apparent permeability [3]: 1.51 ± 0.78 × 10^−6 cm/s
oral bioavailability [4]: < 25%
